Reference: publication PMC4821887, “Identification of chemicals that mimic transcriptional changes associated with autism, brain aging and neurodegeneration” (Nature Communications, 2016)

Columns and labels:
purified tubulin = test: Tubulin polymerization assay (cell-free, BK011P); format: biochemical; details: 37 °C, fluorescence over 60 min, equimolar doses
cortical neurons = test: Soma morphology (proportion of cells with altered soma morphology) in live-cell imaging; format: cell-based, mouse; details: 2 h treatment, vincristine 500 µM in Supplementary Fig. 10c
[1] = system: mouse cortical neuron cultures; details: mouse, 24 h, 10 µM
[2] = system: mitochondrial superoxide in cortical neurons; test: Mitochondrial superoxide detection (MitoSOX Red live-cell imaging); format: cell-based, mouse; details: 2 h treatment, MitoSOX, vincristine 500 µM in Supplementary Fig. 10b

SMILES: CSC1=N[C@@](C)(c2ccccc2)C(=O)N1Nc1ccccc1 [fenamidone]
- Effect on tubulin polymerization (purified tubulin): did not impair
- Soma swelling / aberrant cell morphology (cortical neurons): dose dependent
- Soma swelling / aberrant cell morphology (cortical neurons; listed as Fenamidone): swelling of neuronal soma
- % Dead cells (vehicle subtracted) [1]: 1.638%
- Mitochondrial superoxide (O2−) production [2]: dose dependent
- Mitochondrial superoxide (O2−) production ([2]; listed as Fenamidone): concentration-dependent increase
